The values that follow come from US8367662B2, “Organic compounds” (Novartis AG, priority 2007, dated 2013).

First the molecules themselves.
B1: follistatin: an antagonist of activin signalling (protein, UniProt P19883 30-344, looked up)
Follistatin: GNCWLRQAKNGRCQVLYKTELSKEECCSTGRLSTSWTEEDVNDNTLFKWMIFNGGAPNCIPCKETCENVDCGPGKKCRMNKKNKPRCVCAPDCSNITWKGPVCGLDGKTYRNECALLKARCKEQPELEVQYQGRCKKTCRDVFCPGSSTCVVDQTNNAYCVTCNRICPEPASSEQYLCGNDGVTYSSACHLRKATCLLGRSIGLAYEGKCIKAKSCEDIQCTGGKKCLWDFKVGRGRCSLCDELCPDSKSDEPVCASDNATYASECAMKEAACSSGVLLEVKHSGSCNSISEDTEEEEEDEDQDYSFPISSILEW

For the first data set, the system named is dimethylnitrosamine induced liver fibrosis.
Test: not given
The note with it: rat, during the 3 weeks treatment; cited from earlier work.
With `c1ccc(-c2cc(-c3cn[nH]c3-c3ccccn3)ccn2)cc1` [GW6604], the side effects entry is given as “no obvious side effects”.

The same data set, now with this note: rat, given therapeutically, dimethylnitrosamine induced liver fibrosis; cited from earlier work.
Turning to `c1ccc(-c2cc(-c3cn[nH]c3-c3ccccn3)ccn2)cc1` [GW6604], the death rate prevented is listed as 40% and the “inhibition of extracellular matrix deposition” value is given as 60%.

For the next data set, the system named is bleomycin-treated rats.
Test: not given
The note with it: cited from earlier work.
For the molecule B1, the lung fibrosis result is given as “attenuated lung fibrosis”; the “number of macrophages and neutrophils in bronchoalveolar lavage” value is “significantly reduced”.

The next data set has as its target T1, human ALK5 (ALK5 T204D kinase domain) (Homo sapiens, UniProt P36897, T204D).
T1 construct: The kinase domain of human ALK5 (amino acids 200-503); made in house; host or cells: insect cells (baculovirus)
T1 sequence (P36897 200-503 T204D): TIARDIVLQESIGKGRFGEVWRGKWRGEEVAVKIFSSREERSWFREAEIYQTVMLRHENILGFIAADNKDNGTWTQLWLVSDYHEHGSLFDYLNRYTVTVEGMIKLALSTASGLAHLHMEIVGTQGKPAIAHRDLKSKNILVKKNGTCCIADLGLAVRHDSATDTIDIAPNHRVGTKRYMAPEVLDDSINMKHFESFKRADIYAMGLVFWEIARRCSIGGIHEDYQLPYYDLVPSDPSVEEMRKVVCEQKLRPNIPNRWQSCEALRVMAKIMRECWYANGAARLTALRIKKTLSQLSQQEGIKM
The experiment in a line: ALK5 kinase assay: [33P] phosphate incorporation into casein. The class given is biochemical. To be noted: casein substrate, 1 μM unlabelled ATP. How it is done: The kinase activity of ALK5 is assessed by measuring radiolabelled phosphate [33P] incorporation in to the generic substrate, casein. The kinase domain of human ALK5 (amino acids 200-503) is fused to an N-terminal histidine tag. The kinase activity of ALK5 is rendered constitutive via point mutation at amino acid 204 (threonine to aspartate modification, ALK5 T204D) and the kinase construct is engineered to be expressed from a baculovirus expression construct in insect cells. The purified, recombinantly-expressed histidine-tagged ALK5 T204D protein is dissolved at 5.4 mg/ml in 50 mM Tris-HCl pH 8.0, 150 mM NaCl, 5 mM DTT. ALK5 T204D is dissolved to 2.5 μg/ml in assay buffer (Assay buffer: 20 mM Tris-HCl pH 7.4, 10 mM MgCl2, 2 mM MnCl2) on the day of use.
Test compounds and reference compounds are dissolved in assay buffer without DTT containing 5% (v/v) DMSO. Stock solutions of test and reference compounds are diluted in assay buffer with DTT (1.25 mM) containing 4.5% (v/v) DMSO. 10 μl of test or reference compound are added to the appropriate wells of 96 well U-bottomed plate. Total enzyme activity is determined by measuring ALK5 T204D activity in the absence of ALK5 kinase inhibitor reference compounds. Non-specific binding (NSB) is determined by measuring the activity of ALK5 T204D in the presence of ALK5 kinase inhibitor reference compounds. 10 μl of dephosphorylated casein stock solution (dephosphorylated casein is dissolved in ddH2O at 20 mg/ml) is added per well (200 μg/well final assay concentration). 20 μl of ALK5 T204D (2.5 μg/ml solution) is added per well (50 ng/well final assay concentration). The plates are left to incubate at room temperature for 10 minutes.
10 μl of ATP mix is added to the well to initiate the reaction (0.66 nM [^33P]ATP/1 μM unlabelled ATP/well final assay concentration). The ATP mix is prepared as follows, unlabelled ATP (3 mM) is dissolved in ddH2O and pH adjusted to 7.4. The stock concentration of [^33P]ATP is 10 μCi/μl. The appropriate volume of [^33P]ATP is added to unlabelled ATP solution such that the final assay concentration per well is 0.1 μCi. Following addition of the ATP mix, the plates are incubated at room temperature for 50 minutes. The kinase reaction is terminated by the addition of 50 μL Stop Buffer (20 mM Tris-HCl pH 7.4, 10 mM EDTA).
75 μ/well from the reaction plate is transferred to a Multiscreen-IP plate (MultiScreen-IP plates are prepared by added 50 μL of 70% (v/v) ethanol per well and incubated for 5 minutes at room temperature. The ethanol is removed by aspiration via a MultiScreen HTS Vaccum Manifold unit (Millipore, Cat no: MSVMHT500). The plates are washed twice by adding 200 μl/well ddH2O). The MultiScreen-IP plate is incubated at room temperature for 30 minutes to allowing binding of casein to the plate. The MultiScreen-IP plates are washed three times by adding 200 μl/well 100 mM phosphoric acid solution and the gasket is carefully removed from the back of the MultiScreen-IP plate and the plate dried in the oven for 30 minutes. The MultiScreen-IP plate is backsealed, 50 μL of Microscint®20 is added, then the plates are topsealed and radiolabelled casein detected and quantified on a TopCount™ plate-reader using the ^33P scintillation protocol.
For orientation: IC50 means the concentration at which inhibition is half-maximal. `c1cncc(-c2ccn3c(-c4cccc(-n5cccn5)c4)cnc3c2)c1` [Example 1.1, 3-(3-Pyrazol-1-yl-phenyl)-7-pyridin-3-yl-imidazo[1,2-a]pyridine] displayed an IC50 of 4 nM.
Same read-out and setting: as for `c1ccc(-c2cc(-c3cnc4cc(-c5ccc(N6CCOCC6)nc5)ccn34)ccn2)cc1` [Example 1.5, 7-(6-Morpholin-4-yl-pyridin-3-yl)-3-(2-phenyl-pyridin-4-yl)-imidazo[1,2-a]pyridine], the figure is 8 nM; as for `O=Cc1cccc(-c2ccn3c(-c4cccc(-n5cccn5)c4)cnc3c2)c1` [Example 1.9, 3-[3-(3-Pyrazol-1-yl-phenyl)-imidazo[1,2-a]pyridin-7-yl]-benzaldehyde], 86 nM.
`CNC(=O)c1cccc(-c2ccn3c(-c4ccnc(-c5cccc(F)c5)c4)cnc3c2)c1` [Example 1.13, 3-{3-[2-(3-Fluoro-phenyl)-pyridin-4-yl]-imidazo[1,2-a]pyridin-7-yl}-N-methyl-benzamide] registered an IC50 of 55 nM.
The same measure, in the same setting: as for `Fc1cccc(-c2cc(-c3cnc4cc(-c5cccnc5)ccn34)ccn2)c1` [Example 1.17, 3-[2-(3-Fluoro-phenyl)-pyridin-4-yl]-7-pyridin-3-yl-imidazo[1,2-a]pyridine], the figure is 76 nM; as for `CNC(=O)c1cccc(-c2ccn3c(-c4ccnc(-n5ccc(C)n5)c4)cnc3c2)c1` [Example 1.23, N-Methyl-3-{3-[2-(3-methyl-pyrazol-1-yl)-pyridin-4-yl]-imidazo[1,2-a]pyridin-7-yl}-benzamide], 77 nM.
On the same count and under the same terms, as for `Fc1ccccc1-c1cc(-c2cnc3cc(-c4cccnc4)ccn23)ccn1` [Example 1.30, 3-[2-(2-Fluoro-phenyl)-pyridin-4-yl]-7-pyridin-3-yl-imidazo[1,2-a]pyridine], the figure is 47 nM.
Same read-out and setting: as for `O=Cc1cccc(-c2ccn3c(-c4ccnc(N5CCCC5)c4)cnc3c2)c1` [Example 1.46, 3-[3-(2-Pyrrolidin-1-yl-pyridin-4-yl)-imidazo[1,2-a]pyridin-7-yl]-benzaldehyde], the figure is 52 nM; as for `COc1cc(-c2cnc3ccc(N[C@H]4CC[C@H](O)CC4)cn23)ccn1` [Example 2.2], 108 nM; as for `CCOc1cc(-c2cnc3ccc(N[C@H]4CC[C@H](O)CC4)cn23)ccn1` [Example 2.7], 281 nM.
Consider `c1cc(-c2cnc3ccc(-c4ccoc4)cn23)cc(-c2ccoc2)n1` [Example 2.12, 6-Furan-3-yl-3-(2-Furan-3-yl-pyridin-4-yl)-imidazo[1,2-a]pyridine], for which the midpoint of inhibition, the IC50, lay at 147 nM.
`CNC(=O)c1ccc(-c2ccc3ncc(-c4ccnc(-c5ccoc5)c4)n3c2)cc1` [Example 2.18, 4-[3-(2-Furan-3-yl-pyridin-4-yl)-imidazo[1,2-a]pyridin-6-yl]-N-methyl-benzamide] showed an IC50 of 57 nM.
Consider `CS(=O)(=O)Nc1cccc(-c2ccc3ncc(-c4ccnc(-c5ccoc5)c4)n3c2)c1` [Example 2.20, N-{3-[3-(2-Furan-3-yl-pyridin-4-yl)-imidazo[1,2-a]pyridin-6-yl]-phenyl}-methanesulfonamide], for which the IC50 amounted to 97 nM.
